Measurements as given in ChEMBL document CHEMBL3046894, “Synthesis and Herbicidal Activity of Pyrimidinyl Salicylic and Thiosalicylic Acids” (J Pestic Sci, 1996).
Calls of active or inactive are those of the source. The calls are words filed in the database; no cut-off is given here.

Experiments:
Amaranthus retroflexus [1] = assay: Pre-emergence herbicidal activity against Amaranthus retroflexus assessed as growth inhibition at 25 g a.i/10 a; type: functional, organism-based
[2] = (§1) Pre-emergence phytotoxicity against Glycine max (soybean) assessed as mortality at 6.3 g a.i/10 a; type: organism-based; settings: in vivo, 6.3 g a.i/10 a, read-out: mortality
Echinochloa crus-galli [3] = assay: Post-emergence herbicidal activity against Echinochloa crus-galli (barnyard grass) assessed as mortality at 6.3 g a.i/10 a applied 11 days after germination as foliar spray; type: functional; settings: 264 h
Echinochloa crus-galli [4] = assay: Pre-emergence herbicidal activity against Echinochloa crus-galli (barnyard grass) assessed as mortality at 6.3 g a.i/10 a; type: functional; settings: Echinochloa crus-galli, pre-emergence
Chenopodium album [5] = assay: Pre-emergence herbicidal activity against Chenopodium album assessed as growth inhibition at 25 g a.i/10 a; type: functional, organism-based
Cyperus iria [6] = assay: Post-emergence herbicidal activity against Cyperus iria assessed as growth inhibition at 25 g a.i/10 a applied 11 days after germination as foliar spray; type: functional, organism-based
Gossypium hirsutum [7] = assay: (§2) Pre-emergence phytotoxicity against Gossypium hirsutum (cotton) assessed as mortality at 6.3 g a.i/10 a; type: organism-based; settings: in vivo, other
Gossypium hirsutum [8] = assay: Post-emergence phytotoxicity against Gossypium hirsutum (cotton) assessed as mortality at 1.6 g a.i/10 a applied 11 days after germination as foliar spray; type: organism-based; settings: in vivo, other, 264 h
Echinochloa crus-galli [9] = assay: Pre-emergence herbicidal activity against Echinochloa crus-galli (barnyard grass) assessed as growth inhibition at 25 g a.i/10 a; type: functional, organism-based
Glycine max [10] = assay: Pre-emergence phytotoxicity against Glycine max (soybean) assessed as mortality at 1.6 g a.i/10 a; type: organism-based; settings: in vivo, other
Zea mays [11] = assay: Post-emergence phytotoxicity against Zea mays (maize) assessed as mortality at 1.6 g a.i/10 a applied 11 days after germination as foliar spray; type: organism-based; settings: in vivo, other, 264 h
Echinochloa crus-galli [12] = assay: Post-emergence herbicidal activity against Echinochloa crus-galli (barnyard grass) assessed as growth inhibition at 25 g a.i/10 a applied 11 days after germination as foliar spray; type: functional, organism-based
Abutilon theophrasti [13] = assay: Post-emergence herbicidal activity against Abutilon theophrasti (velvetleaf) assessed as mortality at 6.3 g a.i/10 a applied 11 days after germination as foliar spray; type: functional; settings: 264 h
Chenopodium album [14] = assay: Post-emergence herbicidal activity against Chenopodium album assessed as growth inhibition at 25 g a.i/10 a applied 11 days after germination as foliar spray; type: functional, organism-based
Digitaria sanguinalis [15] = assay: Post-emergence herbicidal activity against Digitaria sanguinalis (hairy crabgrass) assessed as growth inhibition at 25 g a.i/10 a applied 11 days after germination as foliar spray; type: functional, organism-based
Gossypium hirsutum [16] = assay: Post-emergence phytotoxicity against Gossypium hirsutum (cotton) assessed as mortality at 6.3 g a.i/10 a applied 11 days after germination as foliar spray; type: organism-based; settings: in vivo, other, 264 h
[17] = (§3) Pre-emergence phytotoxicity against Zea mays (maize) assessed as mortality at 1.6 g a.i/10 a; type: organism-based; settings: in vivo, 1.6 g a.i/10 a, read-out: mortality
Ipomoea lacunosa = assay: Pre-emergence herbicidal activity against Ipomoea lacunosa assessed as mortality at 1.6 g a.i/10 a; type: functional; settings: for mortality at 16 g/ha: Ipomoea lacunosa, pre-emergence
Glycine max [18] = assay: (§4) Post-emergence phytotoxicity against Glycine max (soybean) assessed as mortality at 1.6 g a.i/10 a applied 11 days after germination as foliar spray; type: organism-based; settings: in vivo, other, 264 h
Cyperus iria [19] = assay: Pre-emergence herbicidal activity against Cyperus iria assessed as growth inhibition at 25 g a.i/10 a; type: functional, organism-based
Abutilon theophrasti [20] = assay: Pre-emergence herbicidal activity against Abutilon theophrasti (velvetleaf) assessed as mortality at 6.3 g a.i/10 a; type: functional; settings: Abutilon theophrasti, pre-emergence
Amaranthus retroflexus [21] = assay: Post-emergence herbicidal activity against Amaranthus retroflexus assessed as growth inhibition at 25 g a.i/10 a applied 11 days after germination as foliar spray; type: functional, organism-based
Gossypium hirsutum [22] = assay: Pre-emergence phytotoxicity against Gossypium hirsutum (cotton) assessed as mortality at 1.6 g a.i/10 a; type: organism-based; settings: in vivo, other
Digitaria sanguinalis [23] = assay: Pre-emergence herbicidal activity against Digitaria sanguinalis (hairy crabgrass) assessed as growth inhibition at 25 g a.i/10 a; type: functional, organism-based
Persicaria nodosa [24] = assay: Post-emergence herbicidal activity against Persicaria nodosa assessed as growth inhibition at 25 g a.i/10 a applied 11 days after germination as foliar spray; type: functional, organism-based
Abutilon theophrasti [25] = assay: Post-emergence herbicidal activity against Abutilon theophrasti (velvetleaf) assessed as mortality at 1.6 g a.i/10 a applied 11 days after germination as foliar spray; type: functional; settings: 264 h
Persicaria nodosa [26] = assay: Pre-emergence herbicidal activity against Persicaria nodosa assessed as growth inhibition at 25 g a.i/10 a; type: functional, organism-based
Xanthium strumarium [27] = assay: Pre-emergence herbicidal activity against Xanthium strumarium (cocklebur) assessed as mortality at 6.3 g a.i/10 a; type: functional
Glycine max [28] = assay: as §1; type: organism-based; settings: in vivo, other
Xanthium strumarium [29] = assay: Pre-emergence herbicidal activity against Xanthium strumarium (cocklebur) assessed as mortality at 1.6 g a.i/10 a; type: functional
Zea mays [30] = assay: Pre-emergence phytotoxicity against Zea mays (maize) assessed as mortality at 6.3 g a.i/10 a; type: organism-based; settings: in vivo, other
[31] = as §2; type: organism-based; settings: in vivo, 6.3 g a.i/10 a, read-out: Activity
Glycine max [32] = assay: Post-emergence phytotoxicity against Glycine max (soybean) assessed as mortality at 6.3 g a.i/10 a applied 11 days after germination as foliar spray; type: organism-based; settings: in vivo, other, 264 h
Zea mays [33] = assay: as §3; type: organism-based; settings: in vivo, other
Zea mays [34] = assay: Post-emergence phytotoxicity against Zea mays (maize) assessed as mortality at 6.3 g a.i/10 a applied 11 days after germination as foliar spray; type: organism-based; settings: in vivo, other, 264 h
[35] = as §4; type: organism-based; settings: in vivo, 1.6 g a.i/10 a

SMILES | growth inhibition (GI) (Amaranthus retroflexus [1]) | growth inhibition (GI) (Chenopodium album [5]) | growth inhibition (GI) (Cyperus iria [6]) | Activity (Gossypium hirsutum [8]) | growth inhibition (GI) (Echinochloa crus-galli [9]) | Activity (Glycine max [10]) | Activity (Zea mays [11]) | growth inhibition (GI) (Echinochloa crus-galli [12]) | mortality at 63 g/ha (Abutilon theophrasti [13]) [%] | growth inhibition (GI) (Chenopodium album [14]) | growth inhibition (GI) (Digitaria sanguinalis [15]) | Activity (Gossypium hirsutum [16]) | growth inhibition (GI) (Cyperus iria [19]) | growth inhibition (GI) (Amaranthus retroflexus [21]) | Activity (Gossypium hirsutum [22]) | growth inhibition (GI) (Digitaria sanguinalis [23]) | growth inhibition (GI) (Persicaria nodosa [24]) | mortality at 16 g/ha (Abutilon theophrasti [25]) [%] | growth inhibition (GI) (Persicaria nodosa [26]) | Activity (Zea mays [34]) | other results
COc1cc(OC)nc(Oc2cccc(F)c2C(=O)O)n1 | Active | Active | Active | Toxic | Active | Toxic | Toxic | Active | > 90 | Active | Active | Toxic | Active | Active | Non-toxic | Active | Active | > 90 | Active | – | mortality [2]: > 90%; mortality at 63 g/ha (Echinochloa crus-galli [3]): > 90%; mortality at 63 g/ha (Echinochloa crus-galli [4]): > 90%; Activity (Gossypium hirsutum [7]): Toxic; mortality [17]: > 90%; mortality at 16 g/ha (Ipomoea lacunosa): < 5%; Activity (Glycine max [18]): Toxic; mortality at 63 g/ha (Abutilon theophrasti [20]): > 90%
COc1cc(OC)nc(Sc2cccc([N+](=O)[O-])c2C(=O)O)n1 | – | – | – | Non-toxic | – | Non-toxic | Non-toxic | – | – | – | – | Non-toxic | – | – | < 50% | – | – | – | – | Non-toxic | Activity (Xanthium strumarium [27]): <50%; Activity (Glycine max [28]): Toxic; Activity (Xanthium strumarium [29]): <50%; Activity (Zea mays [30]): Toxic; mortality [31]: < 50%; Activity (Glycine max [32]): Toxic; Activity (Zea mays [33]): Non-toxic; Activity (Glycine max [18]): Toxic
COc1cc(OC)nc(Sc2cccc(F)c2C(=O)O)n1 | – | – | – | Non-toxic | – | Non-toxic | Toxic | – | – | – | – | Toxic | – | – | < 50% | – | – | – | – | Toxic | Activity (Glycine max [28]): Non-toxic; Activity (Xanthium strumarium [29]): <50%; Activity (Zea mays [30]): Toxic; mortality [31]: < 50%; Activity (Zea mays [33]): Toxic; Activity (Ipomoea lacunosa): <50%; mortality at 264 h [35]: > 90%
COc1cc(OC)nc(Oc2cccc(SC)c2C(=O)O)n1 | Active | inactive | Active | Toxic | inactive | – | Toxic | Active | > 90 | Active | Active | Toxic | inactive | Active | – | inactive | Active | > 90 | Active | Toxic | mortality at 264 h [35]: > 90%
COc1cc(OC)nc(Oc2cccc(OC(F)F)c2C(=O)O)n1 | Active | Active | Active | Toxic | Active | Toxic | Toxic | Active | > 90 | Active | Active | Toxic | Active | Active | Non-toxic | Active | Active | > 90 | Active | Toxic | Activity (Glycine max [28]): Toxic; mortality at 16 g/ha (Xanthium strumarium [29]; Xanthium strumarium, pre-emergence): < 5%; Activity (Zea mays [30]): Toxic; Activity (Gossypium hirsutum [7]): Non-toxic; Activity (Zea mays [33]): Non-toxic; mortality at 16 g/ha (Ipomoea lacunosa): < 5%; mortality at 264 h [35]: > 90%
COc1cc(OC)nc(Oc2cc(N)ccc2C(=O)O)n1 | inactive | inactive | Active | – | inactive | – | – | inactive | – | Active | inactive | – | inactive | Active | – | inactive | Active | – | inactive | – | –
COc1ccc(Oc2nc(OC)cc(OC)n2)c(C(=O)O)c1 | Active | Active | Active | – | Active | – | – | Active | – | inactive | Active | – | Active | Active | – | Active | Active | – | Active | – | –
CCCSc1cccc(Oc2nc(OC)cc(OC)n2)c1C(=O)O | inactive | inactive | inactive | – | inactive | – | – | inactive | – | inactive | inactive | – | inactive | Active | – | inactive | Active | – | inactive | – | –
